Earlier results, collected in patent CN114917233A, “一种包含核苷类似物的药物组合物及其制备方法和应用” (Suzhou Vigonvita Life Sciences Co Ltd, priority 2022, dated 2022).

What was measured:
SARS-CoV-2 [1] = test system: SARS-CoV-2
SARS-CoV-2 [2] = conditions: 5 μM, in vitro

In the case of `N#C[C@@]1(c2ccc3c(N)ncnn23)O[C@H](CO)[C@@H](O)[C@H]1O` [GS-441524], the “inhibition of SARS-CoV-2 replication (in words)” value (SARS-CoV-2 [1]) is given as “具有抑制作用”, the “inhibition of virus replication compared with RDV (in words)” value (SARS-CoV-2 [1]; versus RDV) is given as “更强的病毒复制抑制作用” and the “oral bioavailability (in words)” value is given as “低”.

In the case of `CCC(CC)COC(=O)[C@H](C)N[P@](=O)(OC[C@H]1O[C@@](C#N)(c2ccc3c(N)ncnn23)[C@H](O)[C@@H]1O)Oc1ccccc1` [RDV], the “inhibition of SARS-CoV-2 replication (in words)” value (SARS-CoV-2 [1]) is listed as “具有抑制作用”.

In the case of `CC(C)C(=O)OC[C@H]1O[C@@](C#N)(c2ccc3c(N)ncnn23)[C@H](OC(=O)C(C)C)[C@@H]1OC(=O)C(C)C` [式I化合物, (2R,3R,4R,5R)-2-(4-氨基吡咯并[2,1-f][1,2,4]三嗪-7-基)-2-氰基-5-((异丁酰氧基)甲基)四氢呋喃-3,4-二基双(2-甲基丙酸酯)], the replication inhibition rate (SARS-CoV-2 [2]) is listed as 99%.
